Test results as given in ChEMBL document CHEMBL5523694, “Research progress on small molecule inhibitors targeting KRAS G12C with acrylamide structure and the strategies for solving KRAS inhibitor resistance” (Bioorg Med Chem, 2024).
Blank lines part the entries; values can stand above or below the compound they belong to.

Assays:
[1] = system: GTPase KRas (Homo sapiens), P01116 [G12C]; assay: Binding affinity to KRAS G12C mutant (unknown origin) measured after 3 mins
[2] = Stability in monkey whole blood assessed as half life by LC/MS/MS analysis; format: ADME, tissue-based, Macaca mulatta; conditions: rhesus monkey
[3] = Stability in dog whole blood assessed as half life by LC/MS/MS analysis; format: ADME, tissue-based, Canis lupus familiaris
GTPase KRas [4] = molecular target: T1, GTPase KRas (Homo sapiens, UniProt P01116, G12C); assay: Inhibition of KRAS G12C mutant in human NCI-H358 cells measured after 6 hrs; format: cell-based
GTPase KRas [5] = molecular target: T1, GTPase KRas; assay: Inhibition of KRAS G12C mutant in human MIA PaCa-2 cells measured after 6 hrs; format: cell-based
[6] = system: GTPase KRas (Homo sapiens), P01116 [G12C]; assay: Inhibition of KRAS G12C mutant (unknown origin) at 5 uM relative to control
[7] = system: von Hippel-Lindau disease tumor suppressor/GTPase KRas (Homo sapiens), P01116+P40337 [G12C]; assay: PROTAC activity at VHL/KRAS G12C mutant in human NCI-H2030 cells assessed as induction of KRAS G12C degradation relative to control; format: cell-based
GTPase KRas [8] = molecular target: T1, GTPase KRas; assay: Inhibition of KRAS G12C mutant in human NCI-H23 cells; format: cell-based
GTPase KRas [9] = molecular target: T1, GTPase KRas; assay: Inhibition of KRAS G12C mutant in human NCI-H2030 cells; format: cell-based
[10] = system: GTPase KRas (Homo sapiens), P01116 [G12C]; assay: Inhibition of KRAS G12C mutant (unknown origin) at 10 uM relative to control
[11] = system: von Hippel-Lindau disease tumor suppressor/GTPase KRas (Homo sapiens), P01116+P40337 [G12C]; assay: PROTAC activity at VHL/KRAS G12C mutant in human NCI-H23 cells assessed as induction of KRAS G12C degradation relative to control; format: cell-based
[12] = molecular target: T2, von Hippel-Lindau disease tumor suppressor/GTPase KRas (Homo sapiens, UniProt P01116+P40337, G12C); assay: PROTAC activity at VHL/KRAS G12C mutant in human NCI-H23 cells assessed as induction of KRAS G12C degradation; format: cell-based
[13] = molecular target: T2, von Hippel-Lindau disease tumor suppressor/GTPase KRas; assay: PROTAC activity at VHL/KRAS G12C mutant in human NCI-H2030 cells assessed as induction of KRAS G12C degradation; format: cell-based
A-375 = assay: Antiproliferative activity against human A-375 cells by CellTiter-Glo assay; format: functional, cell-based
NCI-H358 [14] = assay: Antitumor activity against human NCI-H358 cells xenografted in Balb/c nude mouse assessed as tumor growth inhibition at 15 mg/kg measured after 27 days by vernier caliper based assay relative to control; format: functional; conditions: NCI-H358, 648 h, time 27 day, read-out: TGI
MIA PaCa-2 = assay: Antiproliferative activity against human MIA PaCa-2 cells harbouring KRAS G12C mutant by CellTiter-Glo assay; format: functional, cell-based
NCI-H358 [15] = assay: Antitumor activity against human NCI-H358 cells xenografted in Balb/c nude mouse assessed as tumor growth inhibition at 5 mg/kg measured after 27 days by vernier caliper based assay relative to control; format: functional; conditions: NCI-H358, 648 h, time 27 day, read-out: TGI
GTPase KRas [16] = molecular target: T1, GTPase KRas; assay: Inhibition of KRAS G12C mutant in human HCC1171 cells; format: cell-based
GTPase KRas [17] = molecular target: T1, GTPase KRas; assay: Inhibition of KRAS G12C mutant (unknown origin) by HTRF method
NCI-H358 [18] = assay: Antiproliferative activity against human NCI-H358 cells harbouring KRAS G12C mutant by CellTiter-Glo assay; format: functional, cell-based
[19] = system: GTPase KRas (Homo sapiens), P01116 [G12C]; assay: Inhibition of KRAS G12C mutant (1 to 169 residues) (unknown origin) at 5 uM incubated for 1 min by Mass spectrometry reactivity assay
[20] = system: GTPase KRas (Homo sapiens), P01116 [G12C]; assay: Inhibition of his tagged KRAS G12C mutant (1 to 169 residues) (unknown origin) by RapidFire mass spectrometric analysis; conditions: concentration not given here
[21] = system: GTPase KRas (Homo sapiens), P01116 [G12C]; assay: Inhibition of KRAS G12C mutant (unknown origin); conditions: concentration not given here

SMILES: C=CC(=O)N1CCN(c2nc(OCCN3CC(F)(F)C3)nc3c(F)c(-c4c(O)cccc4F)c(Cl)cc23)CC1
- Activity [1]: > 90%
- half-life [2]: 7.8 h
- half-life [3]: 3 h

SMILES: C=C(F)C(=O)N1CCN(c2nc(CO[C@@H]3CCCN3CCC(=O)NCCOCCOCCC(=O)N[C@@H](C(=O)N3[C@H](O)CC[C@H]3C(=O)NCc3ccc(-c4scnc4C)cc3)C(C)(C)C)nc3c2CCN(c2cccc4cccc(Cl)c24)C3)C[C@@H]1CC#N
- Emax [7]: 30%
- EC50 (GTPase KRas [8]): 1300 nM
- EC50 (GTPase KRas [9]): > 10000 nM

SMILES: C=C(F)C(=O)N1CCN(c2nc(CO[C@@H]3CCCN3CCCOCCC(=O)N[C@@H](C(=O)C3N[C@H](C(=O)NCc4ccc(-c5scnc5C)cc4)C[C@H]3O)C(C)(C)C)nc3c2CCN(c2cccc4cccc(Cl)c24)C3)C[C@@H]1CC#N (stereo partly drawn)
- Emax [7]: 75%
- Emax [11]: 90%
- DC50 [12]: 760 nM
- EC50 (GTPase KRas [8]): 2900 nM
- EC50 (GTPase KRas [9]): 3800 nM
- DC50 [13]: 590 nM

SMILES: C=CC(=O)N1CCN(c2ncnc3c(=O)n(-c4c(N)c(Cl)cc(Cl)c4F)c(C(F)(F)F)cc23)CC1
- IC50 (A-375): 7320 nM
- inhibition in vivo at 15 mg/kg (NCI-H358 [14]): 116%
- IC50 (MIA PaCa-2): 70000 nM
- inhibition in vivo at 5 mg/kg (NCI-H358 [15]): 107%

SMILES: C=CC(=O)N1CCN(c2nc(OC[C@@H]3CCCN3C)nc3c2C[C@@H](C)C(c2cc(O)cc4ccccc24)C3)[C@@H](C)C1 (stereo partly drawn)
- IC50 (GTPase KRas [16]): < 6 nM
- IC50 (GTPase KRas [17]): < 10 nM

SMILES: C=CC(=O)N1CCN(c2ncnc3c(=O)n(-c4c(O)cccc4F)c(C(F)(F)F)cc23)CC1
- IC50 (A-375): > 50000 nM
- IC50 (NCI-H358 [18]): 5360 nM
- IC50 (MIA PaCa-2): 6480 nM

SMILES: C=CC(=O)N1CCN(c2nc(Oc3cccc4c3CCN(C)C4)nc3c(Oc4c(Cl)c(F)cc5[nH]ncc45)nccc23)CC1
- inhibition [19]: 80%

SMILES: C=CC(=O)N1CCN(c2ncnc3c(F)c(-c4c(O)cccc4F)c(Cl)cc23)CC1
- inhibition in vivo at 15 mg/kg (NCI-H358 [14]): 52%

SMILES: C=CC(=O)N1CCN(c2nc(O[C@@H]3CN(C)C[C@H]3OC)nc3c(Oc4c(Cl)c(Cl)cc5[nH]ncc45)nc(Cl)cc23)CC1
- inhibition [19]: 82%

More lines, now with the values ahead:

- Activity [1]: > 90%
- half-life [2]: 7.8 h
- half-life [3]: 3 h
SMILES: C=CC(=O)N1C[C@H](C)N(c2nc(OCCN3CC(F)(F)C3)nc3c(F)c(-c4c(O)cccc4F)c(Cl)cc23)C[C@H]1C

- IC50 (GTPase KRas [4]): 102 nM
- IC50 (GTPase KRas [5]): 68 nM
- inhibition [6]: 78%
SMILES: C=CC(=O)N1CCN(c2nc(N3CC(N(C)C)C3)nc3c2C[C@@H](C)C(c2c(C)c(Cl)cc4[nH]ncc24)C3)CC1 (stereo partly drawn)

- IC50 (GTPase KRas [4]): 64 nM
- inhibition [10]: 80%
- IC50 (GTPase KRas [5]): 60 nM
SMILES: C=CC(=O)N1CCN(c2nc(N3CC(N(C)C)C3)nc3c2C[C@@H](C)[C@H](c2c(Cl)c(C)cc4[nH]ccc24)C3)C[C@H]1C

- inhibition [20]: > 50%
SMILES: C=CC(=O)N1CCN(c2c3c(nc4c(F)c(-c5c(O)cccc5F)c(Cl)cc24)NC(=O)NC3)CC1

- inhibition [21]: > 90%
SMILES: C=CC(=O)N1CCN(c2nc(OCCN3CCCC3=O)nc3c(F)c(-c4c(O)cccc4F)c(Cl)cc23)CC1

- Activity [1]: > 90%
- half-life [2]: 3.9 h
- half-life [3]: 5.95 h
SMILES: C=CC(=O)N1C[C@H](C)N(c2nc(N3CC(N(C)C)C3)nc3c(F)c(-c4c(C)ccc5cn[nH]c45)c(Cl)cc23)C[C@H]1C
